Where two headings read alike, the source gives them in different places.

Assay [1] deals with T1, rH4R (Rattus norvegicus, UniProt Q91ZY1). Briefly: cell-based. Details: gene Hrh4.
In assay [2] the target is T2, hH4R (Homo sapiens, UniProt Q9H3N8). Briefly: cell-based. Details: gene HRH4; SF-hH4R-His6: cleavable influenza hemagglutinin signal peptide and FLAG, hexahistidine tag; stably expressed in HEK293T with CRE-luc2P reporter. To be noted: HEK293T-CRE-Luc stably expressing SF-H4R-His6, read-out: hH4R / α.
T2 sequence (Q9H3N8 whole entry): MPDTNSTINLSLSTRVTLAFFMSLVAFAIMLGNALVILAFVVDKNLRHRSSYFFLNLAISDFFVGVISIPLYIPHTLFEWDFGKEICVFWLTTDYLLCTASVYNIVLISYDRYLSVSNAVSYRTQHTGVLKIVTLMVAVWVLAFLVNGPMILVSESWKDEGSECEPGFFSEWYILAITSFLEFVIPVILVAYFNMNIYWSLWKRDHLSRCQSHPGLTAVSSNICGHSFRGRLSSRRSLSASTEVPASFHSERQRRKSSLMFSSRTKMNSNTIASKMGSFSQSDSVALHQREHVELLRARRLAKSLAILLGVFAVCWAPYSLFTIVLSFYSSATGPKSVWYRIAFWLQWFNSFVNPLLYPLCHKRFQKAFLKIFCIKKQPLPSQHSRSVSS
Assay [3] concerns the target T3, mH4R (Mus musculus, UniProt Q91ZY2).
T3 sequence (Q91ZY2 1-391): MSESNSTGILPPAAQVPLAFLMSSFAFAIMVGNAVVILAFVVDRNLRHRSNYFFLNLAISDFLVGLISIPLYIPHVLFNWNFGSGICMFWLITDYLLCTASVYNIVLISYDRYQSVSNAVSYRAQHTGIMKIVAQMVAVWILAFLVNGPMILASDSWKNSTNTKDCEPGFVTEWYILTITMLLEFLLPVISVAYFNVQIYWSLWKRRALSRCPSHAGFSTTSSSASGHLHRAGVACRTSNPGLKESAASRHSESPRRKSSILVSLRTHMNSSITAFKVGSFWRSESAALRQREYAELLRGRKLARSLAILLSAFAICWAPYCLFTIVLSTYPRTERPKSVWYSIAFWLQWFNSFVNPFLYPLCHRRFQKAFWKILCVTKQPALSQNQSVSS
Briefly: cell-based. The arrangement: gene Hrh4; SF-mH4R-His6: cleavable influenza hemagglutinin signal peptide and FLAG, hexahistidine tag; GTPgammaS: Sf9 membranes co-expressing Galphai2 and Gbeta1gamma2; species or system HEK293T-CRE-Luc stably expressing SF-H4R-His6.

Assay [4] has as its target T1, rH4R. Description: cell-based. Details: gene Hrh4; SF-rH4R-His6: cleavable influenza hemagglutinin signal peptide and FLAG, hexahistidine tag; GTPgammaS: Sf9 membranes co-expressing Galphai2 and Gbeta1gamma2; species or system HEK293T; CRE-luciferase reporter gene assay, inhibition of forskolin-stimulated luminescence, agonist mode. To be noted: HEK-293T, read-out: rH4R / α.

Assay [5] addresses T2, hH4R. Description: cell-based. Details: gene HRH4.
Assay [6] concerns the target T1, rH4R. Description: CRE-luciferase reporter gene assay, HEK293T. To be noted: for EC50: read-out: rH4R / pEC50 or (pKB) (converted); for rH4R / pEC50 or (pKB): 1 µM forskolin, 5 h, 37 °C, agonist mode. The format is cell-based. Details: gene Hrh4; SF-rH4R-His6: cleavable influenza hemagglutinin signal peptide and FLAG, hexahistidine tag. In general terms: A reporter such as luciferase makes a cellular process visible.

Assay [7] addresses T3, mH4R. Briefly: CRE-luciferase reporter gene assay, HEK293T. The format is cell-based. The arrangement: gene Hrh4; SF-mH4R-His6: cleavable influenza hemagglutinin signal peptide and FLAG, hexahistidine tag. Particulars: for EC50: read-out: mH4R / pEC50 or (pKB) (converted); for mH4R / pEC50 or (pKB): 1 µM forskolin, 5 h, 37 °C, agonist mode.
For assay [8], the target named is T1, rH4R. Briefly: cell-based. Details: gene Hrh4. Particulars: HEK293T-CRE-Luc stably expressing SF-H4R-His6, read-out: rH4R / α.
Assay [9] concerns the target T3, mH4R. Briefly: cell-based. To be noted: HEK293T-CRE-Luc stably expressing SF-H4R-His6, read-out: mH4R / α / −0.23±0.03. Details: gene Hrh4.
In assay [10] the target is T1, rH4R. Briefly: […]GTPγS binding, Sf9 membranes. Details: gene Hrh4; SF-rH4R-His6: cleavable influenza hemagglutinin signal peptide and FLAG, hexahistidine tag; GTPgammaS: Sf9 membranes co-expressing Galphai2 and Gbeta1gamma2. The class given is biochemical. To be noted: read-out: rH4R / pEC50 or (pKB) (converted). Background: GTPγS is a poorly hydrolysed GTP analogue; its binding reports G protein activation.

Assay [11] concerns the target T1, rH4R. Description: CRE-luciferase reporter gene assay, HEK293T. Particulars: read-out: rH4R / pEC50 or (pKB) (converted). The format is cell-based. Details: gene Hrh4; SF-rH4R-His6: cleavable influenza hemagglutinin signal peptide and FLAG, hexahistidine tag.
The target in assay [12] is T3, mH4R. Description: […]GTPγS binding, Sf9 membranes. The format is biochemical. Particulars: read-out: mH4R / pEC50 or (pKB) (converted). Details: gene Hrh4; SF-mH4R-His6: cleavable influenza hemagglutinin signal peptide and FLAG, hexahistidine tag; GTPgammaS: Sf9 membranes co-expressing Galphai2 and Gbeta1gamma2.
For assay [13], the target named is T2, hH4R. Description: cell-based. Details: gene HRH4; SF-hH4R-His6: cleavable influenza hemagglutinin signal peptide and FLAG, hexahistidine tag; stably expressed in HEK293T with CRE-luc2P reporter; species or system HEK293T; CRE-luciferase reporter gene assay, inhibition of forskolin-stimulated luminescence, agonist mode. Particulars: HEK-293T, read-out: hH4R / α.

Setting [14] is: HEK293T-CRE-Luc stably expressing SF-H4R-His6, read-out: rH4R / α.
Where [15] appears, read: HEK293T-CRE-Luc stably expressing SF-H4R-His6, read-out: mH4R / α.
The mark [16] stands for this setting: HEK293T-CRE-Luc stably expressing SF-H4R-His6, read-out: hH4R / α / −0.32±0.04 / −0.39±0.03.

T1 sequence (Q91ZY1 whole entry): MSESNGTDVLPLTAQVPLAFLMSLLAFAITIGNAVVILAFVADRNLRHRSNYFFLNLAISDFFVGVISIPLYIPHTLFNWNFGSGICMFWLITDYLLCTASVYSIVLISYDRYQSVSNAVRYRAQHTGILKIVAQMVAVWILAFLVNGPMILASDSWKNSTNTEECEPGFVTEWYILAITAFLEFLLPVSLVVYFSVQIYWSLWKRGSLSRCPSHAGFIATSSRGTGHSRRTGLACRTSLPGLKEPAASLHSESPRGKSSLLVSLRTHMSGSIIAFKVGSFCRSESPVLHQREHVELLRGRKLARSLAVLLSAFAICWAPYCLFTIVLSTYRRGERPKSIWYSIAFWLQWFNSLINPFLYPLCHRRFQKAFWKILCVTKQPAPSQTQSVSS

Turning to `NCCc1c[nH]cn1` [compound 1, Histamine], the Emax at rH4R [1] (setting [14]), at hH4R [2] and at mH4R [3] (setting [15]) was 100% throughout.

In the case of `N#CNC(=NCCCCc1cnc[nH]1)NCCSc1ccccc1` [UR-PI376 (14)], the results for the Emax on hH4R [2], at mH4R [3] (setting [15]) and on rH4R [4] were 102 ± 2%, 51 ± 5% and 8 ± 10%, respectively.

For `Nc1nc2c(c(N3CC[C@@H](N)C3)n1)CCCc1ccccc1-2` [compound 22, A 943931], the Emax on hH4R [5] (setting [16]) was -63 ± 7%; on rH4R [4] it was -6%.

In the case of `c1ccc(COCCCc2c[nH]cn2)cc1` [compound 11, Proxyfan], the Emax on rH4R [1] (HEK293T-CRE-Luc stably expressing SF-H4R-His6, read-out: rH4R / α / −0.01±0.06) is 76 ± 3%; at hH4R [2], 68 ± 2%; at mH4R [3] (setting [15]), 88 ± 4%. Also, the EC50 is 2140 nM at rH4R [6] and 794 nM on mH4R [7].

For the compound `CN1CCN(c2cc(NCc3c(Cl)cccc3Cl)nc(N)n2)CC1` [compound 16, ST-1006], the values for the Emax on rH4R [8], at hH4R [2] and on mH4R [3] (setting [15]) were -55 ± 12%, 91 ± 1% and 37 ± 4%, respectively.

`c1nc(CC2CCNCC2)c[nH]1` [compound 6, Immepip]: the Emax on rH4R [1] (setting [14]) turned out to be 93 ± 5%; at hH4R [2], 98 ± 2%; at mH4R [3] (setting [15]), 95 ± 3%. For the same compound, the EC50 is 67.6 nM on rH4R [6] and 141 nM on mH4R [7].

In the case of `Nc1nc2c(c(N3CCNCC3)n1)CCC1=C2[C@H]2CCCC[C@H]2O1` [compound 23, A 987306], the Emax at hH4R [5] (setting [16]) is -62 ± 7%; at rH4R [4], -8%.

For the compound `S=C(NC1CCCCC1)N1CCC(c2c[nH]cn2)CC1` [compound 20, Thioperamide], the Emax is -32 ± 4% at hH4R [5] (HEK293T-CRE-Luc stably expressing SF-H4R-His6, read-out: hH4R / α / −0.31±0.06); -44 ± 2% on mH4R [9]; -20 ± 2% on rH4R [4].

Take `NC(=NCc1ccc(Cl)cc1)SCCCc1cnc[nH]1` [compound 9, Clobenpropit]: the Emax on rH4R [1] (setting [14]) turned out to be 37 ± 3%; at hH4R [2] it was 97 ± 3%; at mH4R [3] (setting [15]), 55 ± 5%. For the same compound, the EC50 is 158 nM on rH4R [6] and 186 nM at mH4R [7]. Besides, the Kb at rH4R [10] is 501 nM.

In the case of `C[C@@H](N)Cc1cnc[nH]1` [compound 2, (R)-α-Methylhistamine], the Emax on rH4R [1] (setting [14]) was 96 ± 2%; on hH4R [2] it was 103 ± 4%; at mH4R [3] (setting [15]), 98 ± 1%. Also, the “rH4R / pEC50 or (pKB)” value on rH4R [6] is reported as 5.60±0.12. The “mH4R / pEC50 or (pKB)” value on mH4R [7] amounted to 6.16±0.07.

On to `N=C(N)SCCc1cnc[nH]1` [compound 8, Imetit], for which the Emax turned out to be 95 ± 1% at rH4R [1] (setting [14]), 94 ± 2% at hH4R [2] and 96 ± 2% at mH4R [3] (setting [15]). Besides, the EC50 on rH4R [6] was 61.7 nM; on mH4R [7], 38.9 nM.

Regarding `C[C@H](N)Cc1c[nH]cn1` [compound 3, (S)-α-Methylhistamine], the Emax was found to be 69 ± 3% on rH4R [1] (setting [14]), 90 ± 4% on hH4R [2] and 82 ± 7% at mH4R [3] (setting [15]). Moreover, on rH4R [6], the “rH4R / pEC50 or (pKB)” value is given as 4.26±0.04. In addition, at mH4R [7], the “mH4R / pEC50 or (pKB)” value is 4.72±0.16.

As for `Cc1nc[nH]c1CCN` [compound 5, 5(4)-Methylhistamine], the Emax on rH4R [1] (setting [14]) is 100 ± 3%; on hH4R [2] it was 97 ± 3%; at mH4R [3] (setting [15]), 97 ± 2%. For the same compound, the EC50 is 933 nM at rH4R [6] and 135 nM at mH4R [7].

For `N#C/N=C(/NCCCCc1c[nH]cn1)NCCSc1ccccc1` [compound 14, 2-cyano-1-[4-(1H-imidazol-4-yl)butyl]-3-[(2-phenylthio)ethyl]guanidine], the EC50 on mH4R [7] was 245 nM. The Kb is 7080 nM at rH4R [11] and 794 nM at mH4R [12].

Take `CN1CCN(c2cc(N3Cc4ccccc4C3)nc(N)n2)CC1` [compound 21, ST-1012]: the Emax was -39 ± 3% at hH4R [5] (HEK293T-CRE-Luc stably expressing SF-H4R-His6, read-out: hH4R / α / −0.31±0.06 / −0.32±0.04); 24 ± 7% at rH4R [1] (HEK293T-CRE-Luc stably expressing SF-H4R-His6, read-out: rH4R / α / −0.20±0.02); 24 ± 5% on mH4R [3] (HEK293T-CRE-Luc stably expressing SF-H4R-His6, read-out: mH4R / α / −0.23±0.03 / −0.44±0.02). For the same compound, the EC50 is 7.59 nM on rH4R [6] and 32.4 nM at mH4R [7].

Take `CN1CCN(C2=Nc3cc(Cl)ccc3Nc3ccccc32)CC1` [compound 17, Clozapine]: the Emax on hH4R [2] was 130 ± 5%.

Regarding `CNCCc1cnc[nH]1` [compound 4, N^α-Methylhistamine], the figures for the Emax at rH4R [1] (setting [14]), on hH4R [2] and at mH4R [3] (setting [15]) were 98 ± 4%, 98 ± 3% and 97 ± 2%, respectively. Moreover, the results for the EC50 on rH4R [6] and at mH4R [7] were 589 nM and 575 nM, respectively.

In the case of `c1ncc(CCCC2CCNCC2)[nH]1` [compound 18, VUF 5681], at mH4R [7], the EC50 was 6310 nM. Also, the Emax worked out at 9% at hH4R [13] and 42 ± 2% on mH4R [3] (setting [15]).

On to `c1cc(Cc2cnc[nH]2)ccn1` [compound 7, Immethridine], for which the values for the Emax on rH4R [1] (setting [14]), on hH4R [2] and at mH4R [3] (setting [15]) were 94 ± 1%, 65 ± 2% and 87 ± 2%, respectively. The EC50 at rH4R [6] was 1580 nM; at mH4R [7], 1120 nM.

The record behind these values is publication PMC3759464 (PLoS ONE, 2013).
